Assay results from US20180021361A1, “COMBINATION DRUG TREATMENT FOR HEPATITIS C INFECTION” (JANSSEN PHARMACEUTICALS, INC., priority 2016, published 2018).
“Also recorded” adds a separate entry of the source.

Legend:
[1] = Phase-1 drug-drug interaction study, plasma PK in healthy volunteers
Experimental: A drug-drug interaction study (DDI) study is a study designed to investigate whether a drug alters the pharmacokinetics of another drug or drugs or their metabolites.
Compound (III) Subjects received 800 mg of Compound (III) once daily from Days 1-3, Days 11-13, and Days 21-23. PK blood samples for determination of Compound (III) and metabolite concentrations were collected in reference to the Day 3, Day 13, and Day 23 doses.
Simeprevir—Subjects received 150 mg of Simeprevir (SMV) once daily from Days 4-23. PK blood samples for determination of SMV concentrations were collected in reference to the Day 10, Day 13, Day 20, and Day 23 doses.
Odalasvir—Subjects received a loading dose of 150 mg on Day 14, and 50 mg of Odalasvir once daily from Days 15-23. PK blood samples for determination of Odalasvir concentrations were collected in reference to the Day 20 and Day 23 doses.
Compound (III)—Subjects received 800 mg of Compound (III) once daily from Days 1-3, Days 11-13 and Days 21-23. PK blood samples for determination of Compound (III) and metabolite concentrations were collected in reference to the Day 3, Day 13, and Day 23 doses.
Simeprevir—Subjects receive 150 mg of SMV once daily from Days 4-23. PK blood samples for determination of SMV concentrations were collected in reference to the Day 20 and Day 23 doses.
Odalasvir—Subjects receive a loading dose of 150 mg on Day 4, and 50 mg of Odalasvir once daily from Days 5-23. PK blood samples for determination of Odalasvir concentrations were collected in reference to the Day 10, Day 13, Day 20, and Day 23 doses.
A primary objective was to evaluate the effect of multiple oral doses of Odalasvir (alone), Simeprevir (alone), and Odalasvir and Simeprevir on the multiple oral dose PK of Compound (III) (and certain metabolites thereof, such as the major metabolites in systemic circulation) in healthy volunteers. Other objectives were to evaluate the safety and tolerability of multiple oral doses of Compound (III) when administered alone and in combination with single and multiple oral doses of Odalasvir and/or Simeprevir in healthy volunteers; to determine the potential effect of Compound of Compound (III) and/or Odalasvir on the steady-state PK of Simeprevir in healthy volunteers; to determine the potential effect of Compound of Compound (III) and/or Simeprevir on the steady state PK of Odalasvir in healthy volunteers.
Various other PK parameters were estimated including: […], t1/2, Tmax, Tlast, CL/F, Vz/F, and λz.
Odalasvir: 150 mg loading dose; 50 mg for the remainder of the study period.

[2] = Phase 2a open-label combination study, pharmacokinetics; assay type: in vivo, human
Experimental: A randomized, Phase 2a, open-label study was carried out to evaluate the safety, pharmacokinetics and efficacy of the combination of Compound (III), Odalasvir and Simeprevir in Genotype 1 treatment-naïve subjects with chronic hepatitis C. Other treatment-naïve subjects included Genotype 2, 3, 4, 5 and 6. The aim of the study was to determine the efficacy, pharmacokinetics (PK), and safety of Compound (III)+Odalasvir±SMV in HCV-infected subjects. […] Efficacy, PK and safety evaluations were conducted during and through 24 weeks post dosing. Up to 15 cohorts were enrolled; data was generated from cohorts that have completed dosing.

[3] = prior drug-drug interaction study, Rosuvastatin substrate of OATPs & BCRP; cited from earlier work
BSEP = BSEP (Homo sapiens, UniProt O95342); settings: efflux transporter; cited from earlier work
Chain of BSEP (O95342 whole entry): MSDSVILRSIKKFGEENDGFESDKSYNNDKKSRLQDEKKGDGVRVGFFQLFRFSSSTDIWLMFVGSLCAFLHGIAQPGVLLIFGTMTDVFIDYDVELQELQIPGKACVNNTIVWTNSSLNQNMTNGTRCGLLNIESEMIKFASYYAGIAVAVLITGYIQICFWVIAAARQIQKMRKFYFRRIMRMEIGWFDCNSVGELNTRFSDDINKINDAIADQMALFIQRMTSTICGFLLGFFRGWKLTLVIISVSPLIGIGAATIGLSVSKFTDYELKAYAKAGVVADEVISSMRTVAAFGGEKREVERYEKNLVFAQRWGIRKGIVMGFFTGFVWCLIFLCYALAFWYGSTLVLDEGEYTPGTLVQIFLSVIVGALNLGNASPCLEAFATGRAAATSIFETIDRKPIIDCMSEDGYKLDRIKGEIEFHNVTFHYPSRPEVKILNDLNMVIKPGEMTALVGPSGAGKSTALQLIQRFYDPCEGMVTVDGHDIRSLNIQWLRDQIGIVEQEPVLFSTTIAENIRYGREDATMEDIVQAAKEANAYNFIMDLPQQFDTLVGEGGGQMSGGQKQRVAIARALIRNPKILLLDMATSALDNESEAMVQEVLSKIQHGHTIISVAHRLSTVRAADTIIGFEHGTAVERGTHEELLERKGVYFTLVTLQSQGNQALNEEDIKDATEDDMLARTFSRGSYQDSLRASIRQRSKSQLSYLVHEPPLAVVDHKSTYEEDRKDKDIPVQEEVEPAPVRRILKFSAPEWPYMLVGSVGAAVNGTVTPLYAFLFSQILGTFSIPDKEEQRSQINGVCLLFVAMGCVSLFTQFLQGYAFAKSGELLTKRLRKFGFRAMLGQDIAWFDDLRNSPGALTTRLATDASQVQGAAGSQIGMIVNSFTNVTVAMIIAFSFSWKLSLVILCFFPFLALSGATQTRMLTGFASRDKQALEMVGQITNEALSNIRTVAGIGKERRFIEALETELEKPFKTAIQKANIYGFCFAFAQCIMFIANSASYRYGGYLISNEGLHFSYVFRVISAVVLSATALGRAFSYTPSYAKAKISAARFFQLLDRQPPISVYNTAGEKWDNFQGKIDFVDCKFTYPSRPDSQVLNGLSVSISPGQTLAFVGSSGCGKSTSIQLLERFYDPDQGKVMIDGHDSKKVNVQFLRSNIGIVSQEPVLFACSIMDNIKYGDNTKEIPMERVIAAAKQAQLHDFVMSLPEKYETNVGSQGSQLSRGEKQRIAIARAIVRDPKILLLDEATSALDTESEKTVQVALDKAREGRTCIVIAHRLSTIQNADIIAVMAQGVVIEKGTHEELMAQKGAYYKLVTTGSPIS

OATP1B1 = target: T1, OATP1B1 (Homo sapiens, UniProt Q9Y6L6); settings: uptake transporter; cited from earlier work
T1 sequence (Q9Y6L6 1-691): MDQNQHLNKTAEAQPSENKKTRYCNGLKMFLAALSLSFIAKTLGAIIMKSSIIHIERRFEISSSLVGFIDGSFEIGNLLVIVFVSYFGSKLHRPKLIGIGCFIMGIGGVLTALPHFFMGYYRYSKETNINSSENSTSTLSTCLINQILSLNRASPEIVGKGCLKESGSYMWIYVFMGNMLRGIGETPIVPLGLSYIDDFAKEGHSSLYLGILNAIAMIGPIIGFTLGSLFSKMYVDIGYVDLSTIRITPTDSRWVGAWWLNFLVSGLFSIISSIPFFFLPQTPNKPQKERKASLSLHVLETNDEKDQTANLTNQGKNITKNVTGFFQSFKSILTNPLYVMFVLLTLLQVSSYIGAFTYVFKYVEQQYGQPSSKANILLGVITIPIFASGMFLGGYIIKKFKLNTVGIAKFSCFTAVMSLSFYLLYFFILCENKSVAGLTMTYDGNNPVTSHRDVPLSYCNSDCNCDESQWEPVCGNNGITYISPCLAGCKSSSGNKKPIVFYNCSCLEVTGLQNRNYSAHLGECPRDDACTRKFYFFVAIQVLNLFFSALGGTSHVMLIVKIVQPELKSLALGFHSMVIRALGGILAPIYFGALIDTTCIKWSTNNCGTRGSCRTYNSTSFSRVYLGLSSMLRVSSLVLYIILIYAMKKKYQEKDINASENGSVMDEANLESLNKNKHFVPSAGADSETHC

MRP2 = MRP2 (Homo sapiens, UniProt Q92887); settings: efflux transporter; cited from earlier work
Chain of MRP2 (Q92887 whole entry): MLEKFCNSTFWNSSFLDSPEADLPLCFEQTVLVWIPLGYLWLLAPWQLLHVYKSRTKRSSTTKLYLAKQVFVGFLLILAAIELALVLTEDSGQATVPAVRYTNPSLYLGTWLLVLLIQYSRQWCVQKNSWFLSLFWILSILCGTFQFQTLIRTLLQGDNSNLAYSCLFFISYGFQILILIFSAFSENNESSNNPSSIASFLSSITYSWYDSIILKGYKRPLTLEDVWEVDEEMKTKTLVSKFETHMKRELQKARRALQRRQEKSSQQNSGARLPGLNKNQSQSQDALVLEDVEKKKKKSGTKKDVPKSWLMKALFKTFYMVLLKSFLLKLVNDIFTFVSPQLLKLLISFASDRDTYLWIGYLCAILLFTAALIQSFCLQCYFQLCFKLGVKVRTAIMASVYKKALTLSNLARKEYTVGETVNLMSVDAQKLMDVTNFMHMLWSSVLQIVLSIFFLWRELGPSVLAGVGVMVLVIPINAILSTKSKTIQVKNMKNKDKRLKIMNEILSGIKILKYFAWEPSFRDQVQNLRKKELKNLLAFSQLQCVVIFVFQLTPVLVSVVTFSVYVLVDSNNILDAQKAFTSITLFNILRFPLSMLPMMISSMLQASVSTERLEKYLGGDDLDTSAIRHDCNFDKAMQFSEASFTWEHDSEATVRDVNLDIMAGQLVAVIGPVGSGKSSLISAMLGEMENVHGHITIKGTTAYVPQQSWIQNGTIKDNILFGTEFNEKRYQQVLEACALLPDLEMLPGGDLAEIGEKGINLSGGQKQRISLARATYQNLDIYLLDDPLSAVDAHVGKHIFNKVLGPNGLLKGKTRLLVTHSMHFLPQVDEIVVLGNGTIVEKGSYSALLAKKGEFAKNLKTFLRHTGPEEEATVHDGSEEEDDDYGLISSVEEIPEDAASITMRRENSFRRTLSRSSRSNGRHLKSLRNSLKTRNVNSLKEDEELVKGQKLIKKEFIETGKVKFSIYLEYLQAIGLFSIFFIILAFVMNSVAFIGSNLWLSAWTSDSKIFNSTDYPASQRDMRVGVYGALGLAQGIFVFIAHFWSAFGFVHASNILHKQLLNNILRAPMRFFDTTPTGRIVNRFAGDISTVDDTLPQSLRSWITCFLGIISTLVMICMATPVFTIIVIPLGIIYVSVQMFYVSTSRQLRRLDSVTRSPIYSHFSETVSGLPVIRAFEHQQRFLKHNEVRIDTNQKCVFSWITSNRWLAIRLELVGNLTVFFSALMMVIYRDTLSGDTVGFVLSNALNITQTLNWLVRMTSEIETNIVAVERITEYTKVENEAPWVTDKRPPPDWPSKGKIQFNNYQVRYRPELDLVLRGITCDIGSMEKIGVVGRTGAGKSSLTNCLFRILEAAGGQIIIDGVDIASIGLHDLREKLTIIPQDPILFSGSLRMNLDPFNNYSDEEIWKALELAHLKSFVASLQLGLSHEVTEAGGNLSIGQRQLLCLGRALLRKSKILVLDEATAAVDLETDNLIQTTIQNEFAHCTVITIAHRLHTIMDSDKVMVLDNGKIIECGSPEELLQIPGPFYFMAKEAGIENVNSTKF

P-gp = P-gp (Homo sapiens, UniProt P08183); settings: efflux transporter; cited from earlier work
Chain of P-gp (P08183 whole entry): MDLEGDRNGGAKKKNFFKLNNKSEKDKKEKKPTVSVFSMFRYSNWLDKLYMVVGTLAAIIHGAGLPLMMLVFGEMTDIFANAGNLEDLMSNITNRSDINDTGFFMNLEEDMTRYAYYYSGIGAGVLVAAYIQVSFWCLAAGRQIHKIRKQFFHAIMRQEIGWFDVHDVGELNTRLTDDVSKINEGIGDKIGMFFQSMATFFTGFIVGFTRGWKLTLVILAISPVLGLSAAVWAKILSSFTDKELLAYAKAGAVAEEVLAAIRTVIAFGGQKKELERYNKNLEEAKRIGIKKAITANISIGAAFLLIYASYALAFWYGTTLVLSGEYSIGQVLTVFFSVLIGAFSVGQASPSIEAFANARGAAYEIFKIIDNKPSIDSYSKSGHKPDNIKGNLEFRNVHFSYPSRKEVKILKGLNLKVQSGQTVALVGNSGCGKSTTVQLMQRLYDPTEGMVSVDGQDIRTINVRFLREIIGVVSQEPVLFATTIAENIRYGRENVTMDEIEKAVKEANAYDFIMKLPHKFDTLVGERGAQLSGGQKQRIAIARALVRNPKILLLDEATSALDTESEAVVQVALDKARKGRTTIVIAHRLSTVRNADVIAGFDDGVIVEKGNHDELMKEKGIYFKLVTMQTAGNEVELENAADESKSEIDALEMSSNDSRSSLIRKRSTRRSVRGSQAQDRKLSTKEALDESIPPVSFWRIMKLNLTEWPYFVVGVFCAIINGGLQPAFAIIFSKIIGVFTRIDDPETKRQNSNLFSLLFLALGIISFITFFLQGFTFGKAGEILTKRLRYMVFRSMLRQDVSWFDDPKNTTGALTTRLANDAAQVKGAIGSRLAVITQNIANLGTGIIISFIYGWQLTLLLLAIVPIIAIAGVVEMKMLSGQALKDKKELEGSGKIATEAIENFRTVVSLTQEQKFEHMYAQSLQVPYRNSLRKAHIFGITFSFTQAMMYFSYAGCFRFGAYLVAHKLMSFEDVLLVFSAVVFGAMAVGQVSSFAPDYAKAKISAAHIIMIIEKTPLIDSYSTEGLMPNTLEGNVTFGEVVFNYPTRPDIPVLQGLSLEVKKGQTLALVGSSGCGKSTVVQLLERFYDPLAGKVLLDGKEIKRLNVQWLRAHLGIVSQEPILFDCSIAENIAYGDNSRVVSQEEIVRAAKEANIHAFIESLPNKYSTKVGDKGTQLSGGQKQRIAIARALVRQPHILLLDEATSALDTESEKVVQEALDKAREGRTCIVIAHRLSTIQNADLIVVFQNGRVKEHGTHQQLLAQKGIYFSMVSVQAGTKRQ

[4] = prior drug-drug interaction study, Digoxin a pgp-substrate; cited from earlier work

Structure (SMILES)	exposure increase caused by Odalasvir ([1]; DDI study results) [×]	exposure increase caused by SMV ([1]; DDI study results)	change of exposure on increasing Compound (III) dose from 400 to 800 mg ([2]; HCV GT 1 patients)	increase in Rosuvastatin exposure [3] [fold]	exposure increase, effect of the three Compounds ([1]; DDI study results) [×]	increase of exposure with the combination of the three drugs ([1]; human in vivo study) [times]	effect of Compound (III) on exposure / bioavailability ([1]; human subjects)	in vitro inhibition of BSEP (BSEP)	observed exposure in Cohort 1 / group (i) versus anticipated ([2]; Compound (III) 400 mg, ODV 50 mg QD, SMV 100 mg QD)	decrease of exposure on reducing Simeprevir dosing from 100 mg to 75 mg QD ([2]; in vivo)	in vitro inhibition of OATP1B1 (OATP1B1)	in vitro inhibition of MRP2 (MRP2)	in vitro inhibition of P-gp (P-gp)	increase in exposure of Digoxin [4] [%]
C[C@]1(O)[C@H](n2ccc(=O)[nH]c2=O)O[C@](F)(CO)[C@H]1O [Compound A-1]	1.5	no apparent effect	less than proportionally	–	–	–	–	–	–	–	–	–	–	–
C[C@H](NP(=O)(O)OC[C@@]1(F)O[C@@H](n2ccc(=O)[nH]c2=O)[C@](C)(O)[C@@H]1O)C(=O)O [Compound A-3]	2.6	1.6 ×	–	–	–	–	–	–	–	–	–	–	–	–
COc1ccc2c(O[C@@H]3C[C@H]4C(=O)N[C@]5(C(=O)NS(=O)(=O)C6CC6)C[C@H]5/C=C\CCCCN(C)C(=O)[C@@H]4C3)cc(-c3nc(C(C)C)cs3)nc2c1C [SMV, Simeprevir, reference compound]	1.6	–	–	3	1.6	1.6	no apparent effect; also recorded: does not alter	strong/moderate	higher than anticipated	less than proportionally	strong in vitro inhibition	strong/moderate	strong/moderate	35
